What was measured:
[1] = Physical stability test of aqueous metronidazole compositions (crystal formation or precipitation); assay type: physicochemical; conditions: for Results from stability test: 24 h room temperature then 7 days at about 4 °C
Experimental: The solubility enhancing effect of the combination of niacinamide and urea in increasing the solubility of metronidazole in the aqueous compositions is evaluated by physical stability of the prepared compositions.
Therefore, the formulations are subject to a physical stability test. The protocol for the stability test is as follows: metronidazole and the solubility enhancing agents are combined with water either at room temperature or elevated temperature while stirring until dissolved. The solutions are permitted to cool to room temperature. Customary auxiliaries and additives may be added to the aqueous solutions containing solubilized metronidazole and solubility enhancing agents. The solutions may be gelled by using the suitable gelling agents. The compositions both in gel or solution form are then packaged in clear glass vials and sealed. The vials are kept at room temperature for 24 hours and monitored for crystal formation or precipitation. After 24 hours, the vials are placed in a refrigerator maintained at a temperature of about 4° C. for 7 days. After 7 days, the vials are removed from the refrigerator. Evidence of crystal formation or precipitation is examined.
Each formulation was prepared by combining niacinamide and metronidazole in water (q.s 100%). The mixture was kept at a temperature of about 45° C. while stirring until dissolved. The solutions were permitted to cool to room temperature, packaged and sealed in glass vials. The stability tests described in Example 1 were performed and the test results were recorded.
Each formulation was prepared by combining urea and metronidazole in water (q.s 100%). The mixture was kept at a temperature of about 45° C. while stirring until dissolved. The solutions were permitted to cool to room temperature, packaged and sealed in glass vials. The stability tests described in Example 1 were performed and the test results were recorded.
Each formulation was prepared by combining urea, niacinamide, and metronidazole in water (q.s 100%). The mixture was kept either at room temperature or at a temperature of about 45° C. while stirring until dissolved. The solutions were permitted to cool to room temperature, packaged and sealed in glass vials. The stability tests described in Example 1 were performed and the test results were recorded.

[2] = at 25 °C; cited from earlier work

Cc1ncc([N+](=O)[O-])n1CCO [Metronidazole, 1-(2-hydroxyethyl)-2-methyl-5-nitroimidazole]
Results from stability test ([1]; 1.0% metronidazole + 1.0% urea + 3.0% niacinamide in water): Crystals
Results from stability test ([1]; 1.0% metronidazole + 1.0% urea + 4.0% niacinamide in water): Clear
Results from stability test ([1]; 1.0% metronidazole + 2% niacinamide in water): Crystals formed
Results from stability test ([1]; 1.0% metronidazole + 3% niacinamide in water): Crystals formed
Results from stability test ([1]; 1.0% metronidazole + 3.0% urea + 3.0% niacinamide in water): Clear
Results from stability test ([1]; 1.0% metronidazole + 4% niacinamide in water): Crystals formed
Results from stability test ([1]; 1.0% metronidazole + 4.0% urea + 1.0% niacinamide in water): Crystals
Results from stability test ([1]; 1.0% metronidazole + 5% niacinamide in water): Clear
Results from stability test ([1]; 1.0% metronidazole + 5.0% urea + 1.0% niacinamide in water): Clear
Results from stability test ([1]; 1.0% metronidazole + 5.0% urea + 1.0% niacinamide in water, listed as metronidazole): stable
Results from stability test ([1]; 1.0% metronidazole + 5.0% urea + 2.0% niacinamide in water): Clear
Results from stability test ([1]; 1.0% metronidazole + 7% urea in water): Crystals formed
Results from stability test ([1]; 1.0% metronidazole + 7% urea in water, listed as metronidazole): not sufficient to solubilize
Results from stability test ([1]; 1.0% metronidazole + 8% urea in water): Crystals formed
Results from stability test ([1]; 1.0% metronidazole + 9% urea in water): Crystals formed
Results from stability test ([1]; 1.0% metronidazole + 10% urea in water): Clear
Results from stability test ([1]; 1.2% metronidazole + 10.0% urea + 2.0% niacinamide in water): Clear
Results from stability test ([1]; 1.5% metronidazole + 15.0% urea + 4.0% niacinamide in water): Clear

NC(=O)c1cccnc1 [niacinamide]
Concentration of niacinamide needed to obtain a stable aqueous solution of 1.0% metronidazole ([1]; concentration of urea is 1.0%): about 4.0%
Urea concentration functionally equivalent to 1% niacinamide in inducing the solubility enhancing effect ([1]; from Examples 2 and 3, 1.0% metronidazole): about 2%
Concentration of niacinamide required to obtain a stable aqueous solution of 1.0% metronidazole ([1]; niacinamide as the only solubility enhancing agent): about 5%
Water solubility limit [2]: about 50 % by weight

NC(N)=O [urea]
Concentration of urea needed to obtain a stable aqueous solution of 1.0% metronidazole ([1]; concentration of niacinamide is 1.0%): ≥ 5.0%
Concentration of urea required to obtain a stable aqueous solution of 1.0% metronidazole ([1]; urea as the only solubility enhancing agent): about 10%
Water solubility limit [2]: about 50 % by weight
